Measurements as given in patent US6916927B2, “Pyrazolopyrimidinones which inhibit type 5 cyclic guanosine 3′,5′-monophosphate phosphodiesterase (cGMP-PDE5) for the treatment of sexual dysfunction” (Pfizer Inc., priority 1997, dated 2005).

Molecular target: cGMP-specific PDE (PDE5) (UniProt O76074)
Assay: In vitro PDE inhibitory activity (IC50) against cGMP PDE5
Type: biochemical, human or rabbit
Settings: in vitro activities as inhibitors of cGMP PDE5
Procedure: In vitro PDE inhibitory activities against cyclic guanosine 3′,5′-monophosphate (cGMP) and cyclic adenosine 3′,5′-monophosphate (cAMP) phosphodiesterases were determined by measurement of their IC50 values (the concentration of compound required for 50% inhibition of enzyme activity).
The required PDE enzymes were isolated from a variety of sources, including human corpus cavernosum, human and rabbit platelets, human cardiac ventricle, human skeletal muscle and bovine retina, essentially by the method of W. J. Thompson and M. M. Appleman (Biochem., 1971, 10, 311). In particular, the cGMP-specific PDE (PDE5) and the cGMP-inhibited cAMP PDE (PDE3) were obtained from human corpus cavernosum tissue, human platelets or rabbit platelets; the cGMP-stimulated PDE (PDE2) was obtained from human corpus cavernosum; the calcium/calmodulin (Ca/CAM)-dependent PDE (PDE1) from human cardiac ventricle; the cAMP-specific PDE (PDE^4) from human skeletal muscle; and the photoreceptor PDE (PDE6) from bovine retina.
Assays were performed using a modification of the “batch” method of W. J. Thompson et al. (Biochem., 1979, 18, 5228).

Row | Compound | IC50
1 | CCCOc1ccc(S(=O)(=O)N2CCN(CCO)CC2)cc1-c1nc2c(CCC)nn(Cc3ccccn3)c2c(=O)[nH]1 [Example 4, 5-{5-[4-(2-Hydroxyethyl)piperazin-1-ylsulphonyl]-2-n-propoxyphenyl}-3-n-propyl-1-(pyridin-2-yl)methyl-1,6-dihydro-7H-pyrazolo[4,3-d]pyrimidin-7-one] | 2.2 nM
2 | CCCOc1ccc(S(=O)(=O)N2CCN(CCO)CC2)cc1-c1nc2c(CCC)n(Cc3ccccn3)nc2c(=O)[nH]1 [Example 7, 5-{5-[4-(2-Hydroxyethyl)piperazin-1-ylsulphonyl]-2-n-propoxyphenyl}-3-n-propyl-2-(pyridin-2-yl)methyl-2,6-dihydro-7H-pyrazolo[4,3-d]pyrimidin-7-one] | 2.6 nM
3 | CCCOc1ccc(S(=O)(=O)N2CCN(C)CC2)cc1-c1nc2c(CCC)nn(Cc3ncnn3C)c2c(=O)[nH]1 [Example 31, 5-[5-(4-Methylpiperazin-1-ylsulphonyl)-2-n-propoxyphenyl]-1(1-methyl-1,2,4-triazol-5-yl)methyl-3-n-propyl-1,6-dihydro-7H-pyrazolo-[4,3-d]pyrimidin-7-one] | 4 nM
4 | CCCc1nn(Cc2ccccc2)c2c(=O)[nH]c(-c3cc(S(=O)(=O)N4CCN(C)CC4)ccc3OCC)nc12 [Example 41, 1-Benzyl-5-[2-ethoxy-5-(4-methylpiperazin-1-ylsulphonyl)phenyl]-3-n-propyl-1,6-dihydro-7H-pyrazolo[4,3-d]pyrimidin-7-one] | 3.9 nM
5 | CCCOc1ccc(S(=O)(=O)N2CCN(C)CC2)cc1-c1nc2c(CCC)n(Cc3ncnn3C)nc2c(=O)[nH]1 [Example 77, 5-[5-(4-Methylpiperazin-1-ylsulphonyl)-2-n-propoxyphenyl]-2-(1-methyl-1,2,4-triazol-5-yl)methyl-3-n-propyl-2,6-dihydro-7H-pyrazolo[4,3-d]pyrimidin-7-one] | 7.1 nM
6 | CCCc1c2nc(-c3cc(S(=O)(=O)N4CCN(C)CC4)ccc3OCC)[nH]c(=O)c2nn1Cc1ccccc1 [Example 87, 2-Benzyl-5-[2-ethoxy-5-(4-methylpiperazin-1-ylsulphonyl)phenyl]-3-n-propyl-2,6-dihydro-7H-pyrazolo[4,3-d]pyrimidin-7-one] | 12 nM
7 | CCCOc1ccc(S(=O)(=O)N2CCN(CC)CC2)cc1-c1nc2c(CCC)nn(CCN3CCOCC3)c2c(=O)[nH]1 [Example 100, 5-[5-(4-Ethylpiperazin-1-ylsulphonyl)-2-n-propoxyphenyl]-1-(2-morpholin-4-ylethyl)-3-n-propyl-1,6-dihydro-7H-pyrazolo[4,3-d]pyrimidin-7-one] | 1.9 nM
8 | CCCOc1ccc(S(=O)(=O)N2CCN(CC)CC2)cc1-c1nc2c(CCC)n(CCN3CCOCC3)nc2c(=O)[nH]1 [Example 108, 5-[5-(4-Ethylpiperazin-1-ylsulphonyl)-2-n-propoxyphenyl]-2-(2-morphin-4-ylethyl)-3-n-propyl-2,6-dihydro-7H-pyrazolo[4,3-d]pyrimidin-7-one] | 2.1 nM
9 | CCCOc1ccc(S(=O)(=O)N2CCN(CC)CC2)cc1-c1nc2c(CCC)n(-c3ccccc3NS(C)(=O)=O)nc2c(=O)[nH]1 [Example 117, 5-[5-(4-Ethylpiperazin-1-ylsulphonyl)-2-n-propoxyphenyl]-2-(2-methanesulphonamidophenyl)-3-n-propyl-2,6-dihydro-7H-pyrazolo[4,3-d]-pyrimidin-7-one] | 3.2 nM
10 | CCCOc1ccc(S(=O)(=O)N2CCN(C)CC2)cc1-c1nc2c(CCC)n(-c3ncccn3)nc2c(=O)[nH]1 [Example 125, 5-[5-(4-Methylpipierazin-1-ylsulphonyl)-2-n-propoxyphenyl]-3-n-propyl-2-pyrimidin-2-yl-2,6-dihydro-7H-pyrazolo[4,3-d]pyrimidin-7-one] | 2.8 nM
11 | CCCc1c2nc(-c3cc(S(=O)(=O)N4CCN(C)CC4)ccc3OCC)[nH]c(=O)c2nn1CC1CCC1 [Example 126, 2-Cyclobutylmethyl-5-[2-ethoxy-5-(4-methylpiperazin-1-ylsulphonyl)phenyl]-3-n-propyl-2,6-dihydro-7H-pyrazolo[4,3-d]pyrimidin-7-one] | 9.2 nM
12 | CCCOc1ccc(S(=O)(=O)N2CCN(CC)CC2)cc1-c1nc2c(CCC)n(Cc3cccc[n+]3[O-])nc2c(=O)[nH]1 [Example 129, 5-[5-(4-Ethylpiperazin-1-ylsulphonyl)-2-n-propoxyphenyl]-2-(1-oxidopyridin-2-yl)methyl-3-n-propyl-2,6-dihydyro-7H-pyrazolo[4,3-d]pyrimidin-7-one] | 6.5 nM
